Where “and” joins values, the source holds several entries; their conditions need not be identical. Equal entries are not always repeated.
How the values were obtained:
[1] = test system: glioblastoma multiforme cell nuclei; test: In vivo biodistribution of Gd-DTPA in glioblastoma multiforme patients (ICP-MS, spectromicroscopy); set-up: species or system human; settings: six glioblastoma multiforme patients injected with Gd-DTPA before tumor excision
Description: The present inventors also tested the in vivo biodistribution of Gd-DTPA in six glioblastoma multiforme patients injected with Gd-DTPA before tumor excision. The tumors were frozen and sectioned for ICP-MS and Microscope à Emission de Photoélectrons par Illumination Synchrotronique de Type Onduleur analysis. Evidence for Gd intracellular localization was found within the tumors in all six cases. However, the gadolinium localized in only 6.1% of the cell nuclei analyzed.

F98 brain glioma = settings: intracranial infusion one day before 78.8 keV photons, 15 Gy single dose; cited from earlier work
TB10 cells [2] = test: X-PEEM (SPHINX) spectromicroscopy of intranuclear Gd; type: cell-based, human
Method: (§1) Cell Culture and Exposure to Motexafin Gadolinium: Four well-established human glioblastoma multiforme cell lines were used for the in vitro studies: T98G (22), U87 (23), MO59K (24), and TB10 (9, 25). Cells were grown on precut 10 mm×10 mm silicon wafers (Silson, Northhampton, United Kingdom) for X-PEEM spectromicroscopy; on 1 mm×1 mm Si3N4 windows, 100 nm thick (Silson) for STXM spectromicroscopy; on tissue culture-treated polystyrene slides for confocal microscopy; and in Petri dishes for ICP-MS analysis. Subconfluent cultures were exposed to motexafin gadolinium (Pharmacyclics, Sunnyvale, Calif.), formulated at 2.3 mg/mL in 5% aqueous mannitol, and added to the culture medium to a final concentration of 100 μmol/L. Six different exposure times ranging from 0 to 72 hours were used for the ICP-MS time course measurements. For all microscopy experiments exposure times were kept constant at 72 hours. The cell appearance was not altered by motexafin gadolinium exposure.
(§2) After exposure to motexafin gadolinium, the cell cultures on Si substrates for X-PEEM analysis were washed three times with PBS solution to remove free Gd, fixed in 4% paraformaldehyde in PBS for 20 minutes, double-washed in Milli-Q-water, and air dried. At this point, some cell cultures were sputtered with 3-kV argon ions at 10^−5 Torr for 10 minutes; others were not. Sputtering removes the topmost portion of the cell to reveal the inner nuclear compartment of fixed cells (26). Sputtered and unsputtered cells were then ashed in UV/O3 for 140 hours (27). […]
X-PEEM Spectromicroscopy Analysis: X-PEEM spectromicroscopy analysis was done using the Spectromicroscope for Photoelectron Imaging of Nanostructures with X-rays (SPHINX) instrument (Elmitec GmbH, Clausthal, Germany), installed on the HERMON beamline at the Synchrotron Radiation Center (Madison, Wis.). […] Cell and tissue ashing increases gadolinium concentration by a factor of 10; therefore, the detection limit was on the order of ≦100 ppm in all cells analyzed. […]

MO59K cells = test: STXM spectromicroscopy of intranuclear Gd; type: cell-based, human; settings: 27 MO59K cells, 100 μmol/L, 72 hours
Method: as §1
as §2, with “(27). Parallel cultures were run and treated identically for ICP-MS measurements of the bulk Gd concentration. Cell cultures for STXM analysis on Si3N4 windows, after motexafin gadolinium exposure, were washed, fixed, washed, and air-dried.” for “(27).”
(§3) STXM Spectromicroscopy Analysis: The STXM instrument on beamline 11.0.2 at the Advanced Light Source in Berkeley uses an undulator source and is optimized for the Gd3d absorption energy. […] Three cell cultures were analyzed, containing 34 T98G cells, 27 MO59K cells, and 139 TB10 cells, respectively. […]

T98G cells = test: STXM spectromicroscopy of intranuclear Gd; type: cell-based, human; settings: 34 T98G cells, 100 μmol/L, 72 hours
Method: as §1
as §2, with “(27). Parallel cultures were run and treated identically for ICP-MS measurements of the bulk Gd concentration. Cell cultures for STXM analysis on Si3N4 windows, after motexafin gadolinium exposure, were washed, fixed, washed, and air-dried.” for “(27).”
as §3

TB10 cells [3] = test: STXM spectromicroscopy of intranuclear Gd; type: cell-based, human; settings: 139 TB10 cells, 100 μmol/L, 72 hours
Method: as §1
as §2, with “(27). Parallel cultures were run and treated identically for ICP-MS measurements of the bulk Gd concentration. Cell cultures for STXM analysis on Si3N4 windows, after motexafin gadolinium exposure, were washed, fixed, washed, and air-dried.” for “(27).”
as §3

[4] = test system: T98G, MO59K and TB10 cells; test: STXM spectromicroscopy of intranuclear Gd, all cells analyzed; type: cell-based, human; settings: overall, n=200
Method: as §1, with “exposure. […]” for “exposure.”
as §3

[5] = test system: TB10, MO59K and T98G cells; test: Confocal fluorescence microscopy of motexafin gadolinium-related fluorescence; type: cell-based, human; settings: n=481, 100 μmol/L, 72 hours
Method: Cell Culture and Exposure to Motexafin Gadolinium: Four well-established human glioblastoma multiforme cell lines were used for the in vitro studies: T98G (22), U87 (23), MO59K (24), and TB10 (9, 25). Cells were grown on precut 10 mm×10 mm silicon wafers (Silson, Northhampton, United Kingdom) for X-PEEM spectromicroscopy; on 1 mm×1 mm Si3N4 windows, 100 nm thick (Silson) for STXM spectromicroscopy; on tissue culture-treated polystyrene slides for confocal microscopy; and in Petri dishes for ICP-MS analysis. […]
Confocal Microscopy: Three of the four cell lines (TB10, MO59K, and T98G) were analyzed using a Bio-Rad (Richmond, Calif.) MRC 1024ES confocal microscope. This instrument can simultaneously measure the fluorescence from three channels, with excitation wavelengths from the three lines of a krypton/argon laser and emission through three independent barrier filters. […]
The aperture was set for minimal optical section thickness, and laser power and photodetector gain were set to image cell fluorescence within the 8-bit grayscale range of the photodetector. Five consecutive optical sections were obtained vertically through the cells to verify that motexafin gadolinium fluorescence originated from the nucleus and not only from the cytoplasm above or below the nucleus.

[6] = ICP-MS of Gd in tissue and plasma of glioblastoma multiforme patients; type: in vivo, human
Method: Tissue samples from three glioblastoma multiforme patients were also analyzed with ICP-MS (Table 1). These were collected from glioblastoma multiforme tissue and plasma for patients 1 and 2, and from tumor necrotic and uninvolved brain areas for the postmortem patient 3. All gadolinium concentrations were normalized to the measured tissue weight and volume. […]

[7] = test system: human glioblastoma multiforme cell lines; test: Cell appearance after exposure in culture; type: cell-based; settings: 100 μmol/L, up to 72 hours
Method: as §1

Q: Which “percentage of cell nuclei analyzed in which gadolinium localized” value [1] does the source give for `O=C([O-])CN(CCN(CC(=O)[O-])CC(=O)O)CCN(CC(=O)[O-])CC(=O)O.[Gd+3]` [Gd-DTPA, gadolinium diethylenetriaminepentaacetic acid] here?
A: The value was 6.1%.

Q: With `N.N.[Cl][Pt][Cl]` [cis-platinum] as the compound, how does the “survival rate at one year” value (F98 brain glioma) read?
A: Its value is 34%.

Q: What does the source list for motexafin gadolinium?
A: percentage of Gd-containing nuclei (TB10 cells [2]; TB10, after sputtering (72 cells)): 88%; percentage of Gd-containing nuclei (TB10 cells [2]; TB10, before sputtering (unsputtered, 108 cells)): 92%; percentage of cells with at least one gadolinium pixel in the nucleus (TB10 cells [2]; TB10, n=180, 100 μmol/L, 72 hours): 90%; percentage of cells containing gadolinium in their nuclei (MO59K cells): 96%; percentage of cells containing gadolinium in their nuclei (T98G cells): 90%; percentage of cells containing gadolinium in their nuclei (TB10 cells [3]): 88%; percentage of cells with at least one gadolinium pixel in their nuclei [4]: 90%; percentage of cells exhibiting motexafin gadolinium-related fluorescence in cytoplasm and nuclei [5]: 100%; [Gd] ([6]; Patient 1, Plasma, 2:30 hrs, single dose 10 mg/kg): 3.415 ppm; [Gd] ([6]; Patient 1, Plasma, 5 min, single dose 10 mg/kg): 12.973 ppm; [Gd] ([6]; Patient 1, Plasma, 45 min, single dose 10 mg/kg): 7.349 ppm; [Gd] ([6]; Patient 1, Plasma, 3 hrs, single dose 10 mg/kg): 4.079 ppm; [Gd] ([6]; Patient 1, Plasma, 24 hrs, single dose 10 mg/kg): 1.700 ppm; [Gd] ([6]; Patient 1, Tumor, 2:30 hrs, single dose 10 mg/kg): 7.266 ppm; [Gd] ([6]; Patient 1, Tumor, 3 hrs, single dose 10 mg/kg): 2.475 ppm; [Gd] ([6]; Patient 2, Plasma, 1:14 hrs, single dose 10 mg/kg): 6.536 ppm; [Gd] ([6]; Patient 2, Plasma, 1:30 hrs, single dose 10 mg/kg): 6.309 ppm; [Gd] ([6]; Patient 2, Plasma, 5 min, single dose 10 mg/kg): 14.043 ppm; [Gd] ([6]; Patient 2, Plasma, 45 min, single dose 10 mg/kg): 8.143 ppm; [Gd] ([6]; Patient 2, Plasma, 3 hrs, single dose 10 mg/kg): 5.109 ppm; [Gd] ([6]; Patient 2, Plasma, 24 hrs, single dose 10 mg/kg): 1.770 ppm; [Gd] ([6]; Patient 2, Tumor, 1:11 hrs, single dose 10 mg/kg): 29.728 ppm; [Gd] ([6]; Patient 2, Tumor, 1:18 hrs, single dose 10 mg/kg): 19.580 ppm; [Gd] ([6]; Patient 2, Tumor, 45 min, single dose 10 mg/kg): 22.589 ppm; [Gd] ([6]; Patient 3 (autopsy), Necrosis within tumor, 57 days after the last of multiple doses): 2.144 ppm; [Gd] ([6]; Patient 3 (autopsy), Tumor, 57 days after the last of multiple doses, listed as Motexafin-Gd): 8.542 ppm and 8.022 ppm; cell appearance [7]: not altered

— patent publication US20070225268A1, “METHOD TO TREAT NEOPLASMS VIA GADOLINIUM STEREOTACTIC SYNCHROTRON RADIATION” (priority 2005, published 2007)
